According to PMC4301629 (PLoS ONE, 2015):

What was measured:
CCR5_CHO cells = test: Ca2+ transient response in CCR5_CHO negative control cells; format: cell-based, Chinese hamster; conditions: S4 Fig.
Procedure: Cells were resuspended in Hank’s balanced salt solution (Invitrogen) supplemented with 2 mM CaCl2, 10 mM HEPES pH 7.4, 2.5 mM probenecid, plus 1g/L each of glucose and bovine serum albumin (BSA), and seeded in poly-D-lysine coated 96-well black plates with transparent bottom (Costar) at a density of 50,000 cells/0.1 mL per well. Cells were then incubated for 1 h at 37°C with an additional 0.1 mL of buffer containing 4 μM fluo3-AM that was diluted from a stock solution containing 1 mM fluo3-AM dye in DMSO with 10% pluronic acid. After dye loading incubation, plates were washed twice with 100 μL of buffer and refilled with 100 μL of assay buffer. In experiments testing the effect of antagonists, 25 μL of buffer from wells of washed cells were replaced with 25 μL of vehicle or 4× antagonist solution. […] Agonist-evoked Ca^2+ mobilization responses of cell populations were monitored at room temperature simultaneously in all wells of the assay plate using the plate-imaging fluorometric reader FLIPR (MDS Analytical Technologies, Sunnyvale, CA). Measurements consisted of recording baseline fluorescence signal for 10 seconds followed by addition of the test substance and 1–2 minute readings of Ca^2+ transient responses as reported by changes in Ca^2+ dye fluorescence (excitation 488 nm, emission 510–570 nm). […]

β3-AR = conditions: in presence of GTP; cited from earlier work
α1A-AR [1] = biological target: T1, α1A-AR (Homo sapiens, UniProt P35348); test: IP accumulation in α1A-AR_CHO stable cells; format: cell-based; design: expressed in transfected cells; conditions: Iso up to 1 mM
T1 sequence (P35348 1-466): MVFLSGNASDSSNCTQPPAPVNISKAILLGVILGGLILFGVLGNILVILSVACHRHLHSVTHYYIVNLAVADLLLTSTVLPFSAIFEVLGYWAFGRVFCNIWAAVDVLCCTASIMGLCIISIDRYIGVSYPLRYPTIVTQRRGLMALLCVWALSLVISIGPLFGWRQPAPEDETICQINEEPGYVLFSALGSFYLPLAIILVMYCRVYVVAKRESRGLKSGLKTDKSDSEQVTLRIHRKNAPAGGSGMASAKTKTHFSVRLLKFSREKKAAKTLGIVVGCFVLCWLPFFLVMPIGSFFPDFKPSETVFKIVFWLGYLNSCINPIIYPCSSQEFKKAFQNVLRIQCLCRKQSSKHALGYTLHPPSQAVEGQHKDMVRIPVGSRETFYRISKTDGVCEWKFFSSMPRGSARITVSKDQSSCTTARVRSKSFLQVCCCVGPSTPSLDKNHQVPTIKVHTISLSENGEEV
Procedure: (§1) After 10–20 minutes, 10 μL of agonist was added followed by incubation for 5 to 30 minutes. Stimulation was stopped by addition of lysis buffer. Second messenger levels were determined using a homogeneous immunoassay method with time-resolved FRET detection (IP-One HTRF, Cisbio International) according to protocols provided by the supplier. Sample fluorescence was measured with a Nanoscan plate reader (IOM, Berlin). Each data point represents the average of quadruplicate determinations and each experiment was performed at least two times independently.
IP1, IP2, and IP3 levels were determined via LC-MS. Plots are representative of three independent experiments with each data point being the average of triplicates.

α1A-AR [2] = biological target: T1, α1A-AR; test: IP accumulation (IP-One HTRF) in α1A-AR transduced HEK-293/EBNA cells; format: cell-based; design: expressed in transfected cells; host or cells: HEK-293/EBNA (baculovirus transduction, NaBu induction); conditions: α1A-AR transduced HEK-293/EBNA; Iso up to 10 mM
Procedure: Prior to experiments, cells were transduced with baculovirus strains designed for transient expression of α1A-AR or aldehyde oxidase (negative control). This was performed by incubating cells with virus (MOI 100–150) for 3 to 4 h, followed by exchange into fresh serum free growth medium supplemented with 4 mM sodium butyrate (NaBu). Cells were grown for another 14 to 18 h and then examined for agonist-evoked responses in transient Ca^2+ release, IP accumulation or pERK activation assays. The surface receptor expression density was determined by flow cytometry via immunofluorescence labeling of an N-terminal HA epitope tag on the receptor and radioligand binding in partially purified membranes.
as §1

α1A-AR [3] = biological target: T1, α1A-AR; test: LC-MS detection of IP1, IP2 and IP3 in α1A-AR transduced HEK-293/EBNA cells; format: cell-based; design: expressed in transfected cells; host or cells: HEK-293/EBNA (baculovirus transduction, NaBu induction); conditions: Iso up to 10 mM
Procedure: Virally transduced HEK-293/EBNA cells were resuspended in growth medium and seeded in poly-D-lysine coated 96-well black plates at a density of 100,000 cells/0.1 mL per well, Cells were allowed to attach for 2 hours at 37°C in a humidified atmosphere of 95% air and 5% CO2. After that, the medium was replaced with agonist solution in assay buffer (20 mM HEPES, 10 mM glucose, 1.8 mM CaCl2, 0.5 mM MgSO4, in HBSS 1X buffer, 50 mM LiCl) and cells were incubated at 37°C for 30 min. Stimulation was stopped by exchange of assay buffer with lysis buffer (100 μL 0.1N HCl/MeOH), and lysis proceeded for 30 min at 4°C. Cellular levels of inositol phosphates were determined using a Thermo LC-MS detection system following a published protocol. Chromatography was performed employing a BioBasic column AX (50 × 2.1 mm, Thermo). The mobile phase consisted of solvent A: 10 mM ammonium acetate, pH 6 in 30/70 acetonitrile/water, and solvent B: 1 mM ammonium acetate, pH 11 in 30/70 acetonitrile/water. A gradient solvent system was used starting with 0% solvent B, and analytes were eluted by increasing solvent B to 100% over 3 min. Each data point represents the average of triplicate determinations and each experiment was performed at least three times independently.

CC(C)NCC(O)c1ccc(O)c(O)c1 (centres unmarked) [Iso, isoproterenol]
Ca2+ transient response (CCR5_CHO cells): not observed
Ki (β3-AR): 1600 nM
IP accumulation (α1A-AR [1]): no IP accumulation could be detected
IP accumulation (α1A-AR [2]): no significant accumulation of IP was detected
cellular levels of inositol phosphates IP1, IP2 and IP3 (α1A-AR [3]): no significant changes
